# From US20160137714A1 (Thrasos Innovation, Inc., priority 2014, published 2016)
# Positions of bridges follow the written chain, without caps; N, C: chain ends. Non-standard residues stand in square brackets, D forms with d. Residues, ends and D or L forms follow the SMILES beside them.
# Assay: In vitro plasma stability in heparin-treated fresh rat plasma at 37° C.
# Type: in vitro ADME
# Settings: for AUC0-240: time 0 to 240 minutes; for remaining at 1 min, 1 μM / remaining at 5 min, 1 μM / remaining at 0.25 h, 1 μM / remaining at 0.5 h, 1 μM / remaining at 1 h, 1 μM / remaining at 2 h, 1 μM: heparin-treated fresh rat plasma
# Protocol: GPR-397 and GPR-405 were independently added to fresh rat plasma at a final in-vial concentration of 1 μM. The peptides were incubated in a water bath at 37° C. over a time course that included the following points (in minutes): 0, 1, 5, 15, 30, 60, 120, 240, and 1440. After the incubation time was completed, a 50 μL aliquot of plasma was removed and proteins were precipitated using a solution containing internal standard (THR-123 at 150 ng/mL) in methanol with 0.5% acetic acid (v/v). The samples were centrifuged at 13,000 RPM for 5 minutes, and a 100 μL aliquot of supernatant was removed and transferred to a 96-well plate containing 100 μL of reconstitution solution (Water/MeOH/Acetic Acid/TFA, 60/40/0.2/0.05, v/v/v/v). A calibration curve and quality control (QC) samples were prepared in parallel in the same manner as the incubation samples. The calibration range for this assay was from 0.02 to 2.0 μM in rat plasma. The extracted calibrants, QC, and incubation samples were injected onto an AB SCIEX API 2000 LC-MS/MS system. Chromatographic separation was performed using a reversed-phase C18 HPLC column (Ace-3 C18, 30×2.1 mm, 3 μm). The solvent system consisted of Milli-Q water, acetonitrile and formic acid. Analyte and internal standard were detected using the multiple reaction monitoring (MRM) scan mode. Calibration curves were generated by using a weighted (1/concentration) quadratic regression analysis of the peak area ratios (analyte/internal standard) versus the nominal concentration of the calibration standards. The concentration of the analyte in the incubation samples was determined by back-calculating the peak area ratios obtained using the quadratic regression.
# FIGS. 9-12 compare the in vitro plasma stability results for GPR-405 and THR-123 incubated in fresh rat plasma treated with heparin. FIG. 9 provides a scatter plot showing the first 240 minutes of the time-course and disappearance of the THR peptides in heparin-treated fresh rat plasma at 37° C. […] FIG. 12 compares the calculated half-life of THR-123 and GPR-405.
# [1] = fresh rat plasma 37° C., 1 μM peptide, 0 min
# [2] = fresh rat plasma 37° C., 1 μM peptide, 1 min
# [3] = fresh rat plasma 37° C., 1 μM peptide, 5 min
# [4] = fresh rat plasma 37° C., 1 μM peptide, 15 min
# [5] = fresh rat plasma 37° C., 1 μM peptide, 30 min
# [6] = fresh rat plasma 37° C., 1 μM peptide, 60 min
# [7] = fresh rat plasma 37° C., 1 μM peptide, 120 min
# [8] = fresh rat plasma 37° C., 1 μM peptide, 240 min
# [9] = fresh rat plasma 37° C., 1 μM peptide, 240 min (4 hours), read-out: TI remaining
# [10] = fresh rat plasma 37° C., 1 μM peptide, 1440 min
# [11] = fresh rat plasma 37° C., 1 μM peptide
# [12] = fresh rat plasma treated with heparin in vitro at 37° C.
# [13] = fresh rat plasma 37° C., 1 μM peptide, 1 min, read-out: TI remaining
# [14] = fresh rat plasma 37° C., 1 μM peptide, 5 min, read-out: TI remaining
# [15] = fresh rat plasma 37° C., 1 μM peptide, 15 min, read-out: TI remaining
# [16] = fresh rat plasma 37° C., 1 μM peptide, 30 min, read-out: TI remaining
# [17] = fresh rat plasma 37° C., 1 μM peptide, 60 min, read-out: TI remaining
# [18] = fresh rat plasma 37° C., 1 μM peptide, 120 min, read-out: TI remaining
compound,measurement,setting,value
"CC(C)C[C@@H]1NC(=O)[C@H](C(C)C)NC(=O)[C@H](CCC(N)=O)NC(=O)[C@H](CO)NC(=O)[C@H](CO)NC(=O)[C@H](CC(N)=O)NC(=O)[C@H](Cc2ccccc2)NC(=O)[C@H](Cc2ccc(O)cc2)NC(=O)[C@H](Cc2ccc(O)cc2)NC(=O)[C@@H](N)CSSC[C@@H](C(=O)N[C@@H](CCCCN)C(=O)N[C@@H](CCCNC(=N)N)C(=O)N[C@H](Cc2ccc(O)cc2)C(=O)N[C@@H](CCCNC(=N)N)C(=O)N[C@@H](CO)C(=O)O)NC1=O [GPR-405, Cys-Tyr-Tyr-Phe-Asn-Ser-Ser-Gln-Val-Leu-Cys-Lys-Arg-(D)Tyr-Arg-Ser] (H-CYYFNSSQVLCKR[dY]RS-OH; disulfide 1-11)",Mean plasma concentration,[1],1.095 µM
same,Sample 1 plasma concentration,[1],1.100 µM
same,Sample 2 plasma concentration,[1],1.090 µM
same,TI remaining,[1],100%
same,Mean plasma concentration,[2],1.065 µM
same,Sample 1 plasma concentration,[2],1.080 µM
same,Sample 2 plasma concentration,[2],1.050 µM
same,Mean plasma concentration,[3],1.105 µM
same,Sample 1 plasma concentration,[3],1.090 µM
same,Sample 2 plasma concentration,[3],1.120 µM
same,Mean plasma concentration,[4],1.065 µM
same,Sample 1 plasma concentration,[4],1.080 µM
same,Sample 2 plasma concentration,[4],1.050 µM
same,TI remaining,[4],97.3%
same,Mean plasma concentration,[5],1.002 µM
same,Sample 1 plasma concentration,[5],0.963 µM
same,Sample 2 plasma concentration,[5],1.040 µM
same,Mean plasma concentration,[6],0.934 µM
same,Sample 1 plasma concentration,[6],0.895 µM
same,Sample 2 plasma concentration,[6],0.973 µM
same,Mean plasma concentration,[7],0.826 µM
same,Sample 1 plasma concentration,[7],0.836 µM
same,Sample 2 plasma concentration,[7],0.815 µM
same,Mean plasma concentration,[8],0.538 µM
same,Sample 1 plasma concentration,[8],0.534 µM
same,Sample 2 plasma concentration,[8],0.541 µM
same,TI remaining,"fresh rat plasma 37° C., 1 μM peptide, 240 min (4 hours)",49.1%
same,remaining at 4 h,[9],49.1%
same,Mean plasma concentration,[10],0.075 µM
same,Sample 1 plasma concentration,[10],0.081 µM
same,Sample 2 plasma concentration,[10],0.068 µM
same,TI remaining,"fresh rat plasma 37° C., 1 μM peptide, 1440 min (24 hours)",6.8%
same,remaining at 24 h,"fresh rat plasma 37° C., 1 μM peptide, 1440 min (24 hours), read-out: TI remaining",6.8%
same,AUC0-240,[11],195.4 μM* min/ml
same,measured half-life relative to that of THR-123,[12],about 100 times
same,stability compared with THR-123,[12],dramatically more stable than THR-123
same,"remaining at 1 min, 1 μM",[13],97.3%
same,"remaining at 5 min, 1 μM",[14],101%
same,"remaining at 0.25 h, 1 μM",[15],97.3%
same,"remaining at 0.5 h, 1 μM",[16],91.5%
same,"remaining at 1 h, 1 μM",[17],85.3%
same,"remaining at 2 h, 1 μM",[18],75.4%
"CC(C)C[C@@H]1NC(=O)[C@H](C(C)C)NC(=O)[C@H](CC(N)=O)NC(=O)[C@H](CO)NC(=O)[C@H](CO)NC(=O)[C@H](CC(=O)O)NC(=O)[C@H](CC(=O)O)NC(=O)[C@H](Cc2ccccc2)NC(=O)[C@H](Cc2ccc(O)cc2)NC(=O)[C@@H](N)CSSC[C@@H](C(=O)N[C@@H](CCCCN)C(=O)N[C@@H](CCCCN)C(=O)N[C@@H](Cc2ccc(O)cc2)C(=O)N[C@@H](CCCNC(=N)N)C(=O)N[C@@H](CO)C(=O)O)NC1=O [THR-123, Cys-Tyr-Phe-Asp-Asp-Ser-Ser-Asn-Val-Leu-Cys-Lys-Lys-Tyr-Arg-Ser] (H-CYFDDSSNVLCKKYRS-OH; disulfide 1-11)",Mean plasma concentration,[1],0.905 µM
same,Sample 1 plasma concentration,[1],0.970 µM
same,Sample 2 plasma concentration,[1],0.840 µM
same,TI remaining,[1],100%
same,Mean plasma concentration,[2],0.855 µM
same,Sample 1 plasma concentration,[2],0.850 µM
same,Sample 2 plasma concentration,[2],0.860 µM
same,Mean plasma concentration,[3],0.295 µM
same,Sample 1 plasma concentration,[3],0.300 µM
same,Sample 2 plasma concentration,[3],0.290 µM
same,Mean plasma concentration,[4],0.055 µM
same,Sample 1 plasma concentration,[4],0.060 µM
same,Sample 2 plasma concentration,[4],0.050 µM
same,Mean plasma concentration,[5],0.030 µM
same,Sample 1 plasma concentration,[5],0.060 µM
same,Sample 2 plasma concentration,[5],0.030 µM
same,Mean plasma concentration,[6],0.025 µM
same,Sample 1 plasma concentration,[6],0.026 µM
same,Sample 2 plasma concentration,[6],0.024 µM
same,Mean plasma concentration,[7],0.018 µM
same,Sample 1 plasma concentration,[7],0.015 µM
same,Sample 2 plasma concentration,[7],0.020 µM
same,Mean plasma concentration,[8],0.011 µM
same,Sample 1 plasma concentration,[8],0.010 µM
same,Sample 2 plasma concentration,[8],0.011 µM
same,remaining at 4 h,[9],1.2%
same,AUC0-240,[11],15.65 μM* min/ml
same,"remaining at 1 min, 1 μM",[13],94.4%
same,"remaining at 5 min, 1 μM",[14],32.4%
same,"remaining at 0.25 h, 1 μM",[15],6.4%
same,"remaining at 0.5 h, 1 μM",[16],3.3%
same,"remaining at 1 h, 1 μM",[17],2.8%
same,"remaining at 2 h, 1 μM",[18],1.9%
